Results taken from the NIST ThermoML archive (doi:10.1021/je400134d).
± gives the expanded uncertainty stated by the source.

Test: xn = mol fraction of the nth substance listed
Conditions: 100 kPa, Liquid; for speed of sound: Pulse-echo method; for mass density: Vibrating tube method

## CNc1ccccc1 [N-methylaniline] + CCCCCCC
293.15 K, x1 = 0.054
  speed of sound: 1164.1 ± 1.4 m/s
  mass density: 695.999 ± 0.25 kg/m3
293.15 K, x1 = 0.1084
  speed of sound: 1177.2 ± 1.4 m/s
  mass density: 708.778 ± 0.26 kg/m3
293.15 K, x1 = 0.1536
  speed of sound: 1188.4 ± 1.4 m/s
  mass density: 719.814 ± 0.27 kg/m3
293.15 K, x1 = 0.2
  speed of sound: 1200 ± 1.5 m/s
  mass density: 731.341 ± 0.27 kg/m3
293.15 K, x1 = 0.2556
  speed of sound: 1214.5 ± 1.5 m/s
  mass density: 745.704 ± 0.28 kg/m3
293.15 K, x1 = 0.2976
  speed of sound: 1226.1 ± 1.6 m/s
  mass density: 756.81 ± 0.29 kg/m3
293.15 K, x1 = 0.3473
  speed of sound: 1240.6 ± 1.6 m/s
  mass density: 770.261 ± 0.3 kg/m3
293.15 K, x1 = 0.3944
  speed of sound: 1255.2 ± 1.6 m/s
  mass density: 783.41 ± 0.32 kg/m3
293.15 K, x1 = 0.4485
  speed of sound: 1273.5 ± 1.7 m/s
  mass density: 798.879 ± 0.34 kg/m3
293.15 K, x1 = 0.4953
  speed of sound: 1291 ± 1.8 m/s
  mass density: 812.615 ± 0.36 kg/m3
293.15 K, x1 = 0.5355
  speed of sound: 1306.9 ± 1.8 m/s
  mass density: 824.725 ± 0.38 kg/m3
293.15 K, x1 = 0.599
  speed of sound: 1335 ± 1.9 m/s
  mass density: 844.458 ± 0.41 kg/m3
293.15 K, x1 = 0.6436
  speed of sound: 1356.6 ± 1.9 m/s
  mass density: 858.711 ± 0.44 kg/m3
293.15 K, x1 = 0.7024
  speed of sound: 1387.7 ± 2 m/s
  mass density: 878.07 ± 0.49 kg/m3
293.15 K, x1 = 0.7457
  speed of sound: 1412.5 ± 2 m/s
  mass density: 892.769 ± 0.53 kg/m3
293.15 K, x1 = 0.7858
  speed of sound: 1436.7 ± 2.1 m/s
  mass density: 906.675 ± 0.56 kg/m3
293.15 K, x1 = 0.8459
  speed of sound: 1474.7 ± 2.2 m/s
  mass density: 928.153 ± 0.63 kg/m3
293.15 K, x1 = 0.8952
  speed of sound: 1507.9 ± 2.2 m/s
  mass density: 946.22 ± 0.69 kg/m3
293.15 K, x1 = 0.9491
  speed of sound: 1545.5 ± 2.3 m/s
  mass density: 966.608 ± 0.76 kg/m3
298.15 K, x1 = 0.0577
  speed of sound: 1143.9 ± 1.4 m/s
  mass density: 692.58 ± 0.25 kg/m3
298.15 K, x1 = 0.1072
  speed of sound: 1156.2 ± 1.4 m/s
  mass density: 704.27 ± 0.26 kg/m3
298.15 K, x1 = 0.1473
  speed of sound: 1166.3 ± 1.4 m/s
  mass density: 713.999 ± 0.26 kg/m3
298.15 K, x1 = 0.2055
  speed of sound: 1181.4 ± 1.5 m/s
  mass density: 728.558 ± 0.27 kg/m3
298.15 K, x1 = 0.2595
  speed of sound: 1193.9 ± 1.5 m/s
  mass density: 742.491 ± 0.28 kg/m3
298.15 K, x1 = 0.3033
  speed of sound: 1208.3 ± 1.6 m/s
  mass density: 754.107 ± 0.29 kg/m3
298.15 K, x1 = 0.3401
  speed of sound: 1219.2 ± 1.6 m/s
  mass density: 764.024 ± 0.3 kg/m3
298.15 K, x1 = 0.3955
  speed of sound: 1236.7 ± 1.6 m/s
  mass density: 779.471 ± 0.32 kg/m3
298.15 K, x1 = 0.4559
  speed of sound: 1257.6 ± 1.7 m/s
  mass density: 796.765 ± 0.34 kg/m3
298.15 K, x1 = 0.503
  speed of sound: 1275.5 ± 1.8 m/s
  mass density: 810.692 ± 0.36 kg/m3
298.15 K, x1 = 0.5431
  speed of sound: 1291.9 ± 1.8 m/s
  mass density: 822.843 ± 0.38 kg/m3
298.15 K, x1 = 0.5956
  speed of sound: 1315.3 ± 1.9 m/s
  mass density: 839.178 ± 0.41 kg/m3
298.15 K, x1 = 0.6441
  speed of sound: 1338.8 ± 1.9 m/s
  mass density: 854.671 ± 0.44 kg/m3
298.15 K, x1 = 0.6995
  speed of sound: 1368.1 ± 2 m/s
  mass density: 872.931 ± 0.48 kg/m3
298.15 K, x1 = 0.7491
  speed of sound: 1396.2 ± 2 m/s
  mass density: 889.715 ± 0.52 kg/m3
298.15 K, x1 = 0.7964
  speed of sound: 1425.1 ± 2.1 m/s
  mass density: 906.279 ± 0.57 kg/m3
298.15 K, x1 = 0.8446
  speed of sound: 1455.9 ± 2.2 m/s
  mass density: 923.55 ± 0.62 kg/m3
298.15 K, x1 = 0.8949
  speed of sound: 1489.6 ± 2.2 m/s
  mass density: 942.036 ± 0.68 kg/m3
298.15 K, x1 = 0.9465
  speed of sound: 1525.6 ± 2.3 m/s
  mass density: 961.528 ± 0.75 kg/m3
303.15 K, x1 = 0.0615
  speed of sound: 1124.9 ± 1.4 m/s
  mass density: 689.386 ± 0.25 kg/m3
303.15 K, x1 = 0.1111
  speed of sound: 1137.5 ± 1.4 m/s
  mass density: 701.082 ± 0.25 kg/m3
303.15 K, x1 = 0.1548
  speed of sound: 1148.8 ± 1.4 m/s
  mass density: 711.723 ± 0.26 kg/m3
303.15 K, x1 = 0.2069
  speed of sound: 1162.6 ± 1.5 m/s
  mass density: 724.76 ± 0.27 kg/m3
303.15 K, x1 = 0.2501
  speed of sound: 1174.4 ± 1.5 m/s
  mass density: 735.88 ± 0.28 kg/m3
303.15 K, x1 = 0.2964
  speed of sound: 1187.5 ± 1.5 m/s
  mass density: 748.035 ± 0.28 kg/m3
303.15 K, x1 = 0.348
  speed of sound: 1203.2 ± 1.6 m/s
  mass density: 762.057 ± 0.3 kg/m3
303.15 K, x1 = 0.3979
  speed of sound: 1219.2 ± 1.6 m/s
  mass density: 775.964 ± 0.31 kg/m3
303.15 K, x1 = 0.4513
  speed of sound: 1238 ± 1.7 m/s
  mass density: 791.356 ± 0.33 kg/m3
303.15 K, x1 = 0.5003
  speed of sound: 1256.5 ± 1.8 m/s
  mass density: 805.793 ± 0.35 kg/m3
303.15 K, x1 = 0.5583
  speed of sound: 1280.8 ± 1.8 m/s
  mass density: 823.48 ± 0.38 kg/m3
303.15 K, x1 = 0.5988
  speed of sound: 1299.2 ± 1.9 m/s
  mass density: 836.196 ± 0.4 kg/m3
303.15 K, x1 = 0.647
  speed of sound: 1322.6 ± 1.9 m/s
  mass density: 851.618 ± 0.43 kg/m3
303.15 K, x1 = 0.7026
  speed of sound: 1351.9 ± 2 m/s
  mass density: 869.963 ± 0.48 kg/m3
303.15 K, x1 = 0.7475
  speed of sound: 1377.4 ± 2 m/s
  mass density: 885.221 ± 0.52 kg/m3
303.15 K, x1 = 0.7954
  speed of sound: 1406.3 ± 2.1 m/s
  mass density: 901.919 ± 0.56 kg/m3
303.15 K, x1 = 0.8446
  speed of sound: 1437.5 ± 2.2 m/s
  mass density: 919.525 ± 0.62 kg/m3
303.15 K, x1 = 0.8917
  speed of sound: 1468.8 ± 2.2 m/s
  mass density: 936.846 ± 0.67 kg/m3
303.15 K, x1 = 0.9404
  speed of sound: 1502.4 ± 2.3 m/s
  mass density: 955.244 ± 0.74 kg/m3
